From the supplement of paper PMC5908809

Key:
[1] = tested on: normal NK cells expanded with K562-aAPC; assay: percent inhibition of viability; higher = more inhibition; conditions: 72 h, IL-2 2.5 ng/mL
Experimental: (§1)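 Drug sensitivity and resistance testing on K562-aAPC-expanded normal NK cells: 5 concentrations (10-fold steps over a 10,000-fold range), 72 h at 37 °C, viability by CellTiter-Glo normalised to DMSO and benzethonium chloride controls; DSS from the fitted curve.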

[2] = tested on: normal NK cells expanded with K562-aAPC; assay: drug sensitivity score (DSS) (DSS units); higher = more sensitive; extreme values may be limits of the assay; conditions: 72 h; IL-2 2.5 ng/mL
Experimental: as §1

NK-YS (IL-2 2.5 ng/mL) [3] = assay: percent inhibition of viability; higher = more inhibition; conditions: 72 h
NKL (IL-2 2.5 ng/mL) [4] = assay: as above; conditions: 72 h
[5] = tested on: normal primary NK cells, pool 3 (3 donors) (IL-2 2.5 ng/mL); assay: as above; conditions: 72 h
[6] = tested on: normal primary NK cells, pool 2 (3 donors) (IL-2 2.5 ng/mL); assay: as above; conditions: 72 h
IMC-1 (IL-2 20 ng/mL) [7] = assay: as above; conditions: 72 h
YT (IL-2 2.5 ng/mL) [8] = assay: as above; conditions: 72 h
SNK-6 (IL-2 2.5 ng/mL) [9] = assay: as above; conditions: 72 h
KAI3 (IL-2 2.5 ng/mL) [10] = assay: as above; conditions: 72 h
NK-92 (IL-2 2.5 ng/mL) [11] = assay: as above; conditions: 72 h
[12] = tested on: normal primary NK cells, pool 1 (3 donors) (IL-2 2.5 ng/mL); assay: as above; conditions: 72 h
DERL-7 (IL-2 2.5 ng/mL) [13] = assay: as above; conditions: 72 h
[14] = tested on: normal primary NK cells, pool 1 (3 donors), resting (IL-2 0 ng/mL); assay: as above; conditions: 72 h
KHYG-1 (IL-2 2.5 ng/mL) [15] = assay: as above; conditions: 72 h
NK-YS (IL-2 2.5 ng/mL) [16] = assay: drug sensitivity score (DSS) (DSS units); higher = more sensitive; extreme values may be limits of the assay; conditions: 72 h
NKL (IL-2 2.5 ng/mL) [17] = assay: as above; conditions: 72 h
[18] = tested on: normal primary NK cells, pool 3 (3 donors) (IL-2 2.5 ng/mL); assay: as above; conditions: 72 h
[19] = tested on: normal primary NK cells, pool 2 (3 donors) (IL-2 2.5 ng/mL); assay: as above; conditions: 72 h
IMC-1 (IL-2 20 ng/mL) [20] = assay: as above; conditions: 72 h
YT (IL-2 2.5 ng/mL) [21] = assay: as above; conditions: 72 h
SNK-6 (IL-2 2.5 ng/mL) [22] = assay: as above; conditions: 72 h
KAI3 (IL-2 2.5 ng/mL) [23] = assay: as above; conditions: 72 h
NK-92 (IL-2 2.5 ng/mL) [24] = assay: as above; conditions: 72 h
[25] = tested on: normal primary NK cells, pool 1 (3 donors) (IL-2 2.5 ng/mL); assay: as above; conditions: 72 h
DERL-7 (IL-2 2.5 ng/mL) [26] = assay: as above; conditions: 72 h
[27] = tested on: normal primary NK cells, pool 1 (3 donors), resting (IL-2 0 ng/mL); assay: as above; conditions: 72 h
KHYG-1 (IL-2 2.5 ng/mL) [28] = assay: as above; conditions: 72 h

Cn1cnc2c(F)c(Nc3ccc(Br)cc3F)c(C(=O)NOCCO)cc21 [Binimetinib] (max concentration tested 1000 nM)
percent inhibition of viability [%]
Conditions	0.1 nM	1 nM	10 nM	100 nM	1000 nM
DERL-7 (IL-2 2.5 ng/mL) [13]	1.19	7.3	10.5	16.3	33.7
IMC-1 (IL-2 20 ng/mL) [7]	-6	-0.56	-0.39	4.96	6.74
KAI3 (IL-2 2.5 ng/mL) [10]	-1.37	4.03	7.85	24.3	29.6
KHYG-1 (IL-2 2.5 ng/mL) [15]	-8.34	-1.29	0.25	24.1	42.7
NK-92 (IL-2 2.5 ng/mL) [11]	-10.1	-5.18	-13.1	0.36	-1.28
NK-YS (IL-2 2.5 ng/mL) [3]	-5.25	-2.09	-0.43	5.51	15.3
NKL (IL-2 2.5 ng/mL) [4]	-7.91	-8.09	19.3	43.6	53.2
SNK-6 (IL-2 2.5 ng/mL) [9]	-19.8	-4.3	-10.5	-10.4	-8.36
YT (IL-2 2.5 ng/mL) [8]	-6.43	-3.81	-0.11	2.57	13.4
[1]	1.57	-5.49	-0.07	6.65	16.2
[5]	-5.24	2.75	-0.18	2.58	2.52
[6]	-7.84	-6.09	8.89	-1.5	11
[12]	-6.5	12.6	14.8	18.1	22.7
[14]	-4.5	21.4	12.5	9.21	17.1

Conditions	drug sensitivity score
DERL-7 (IL-2 2.5 ng/mL) [26]	3.71
IMC-1 (IL-2 20 ng/mL) [20]	0
KAI3 (IL-2 2.5 ng/mL) [23]	4.5
KHYG-1 (IL-2 2.5 ng/mL) [28]	5.14
NK-92 (IL-2 2.5 ng/mL) [24]	0
NK-YS (IL-2 2.5 ng/mL) [16]	0.72
NKL (IL-2 2.5 ng/mL) [17]	10.4
SNK-6 (IL-2 2.5 ng/mL) [22]	0
YT (IL-2 2.5 ng/mL) [21]	0.31
[2]	0.91
[18]	0
[19]	0
[25]	4.75
[27]	1.99

Cc1ccc(NC(=O)c2ccc(CN3CCN(C)CC3)cc2)cc1Nc1nc(-c2cccnc2)cs1 [Masitinib] (max concentration tested 10000 nM)
percent inhibition of viability [%]
Conditions	1 nM	10 nM	100 nM	1000 nM	10000 nM
DERL-7 (IL-2 2.5 ng/mL) [13]	-4.46	4.7	-3.25	14.7	99.9
IMC-1 (IL-2 20 ng/mL) [7]	-6.41	-3.52	-8.01	-3.09	100
KAI3 (IL-2 2.5 ng/mL) [10]	0.17	0.29	-11.5	2.65	96.5
KHYG-1 (IL-2 2.5 ng/mL) [15]	-4.84	3.44	-1.97	5.87	97.8
NK-92 (IL-2 2.5 ng/mL) [11]	-1.64	6.19	1.77	-11.2	96.5
NK-YS (IL-2 2.5 ng/mL) [3]	-1.57	-2.35	1.86	14.4	98.2
NKL (IL-2 2.5 ng/mL) [4]	-13.2	-15.1	-14.2	-3.8	96.7
SNK-6 (IL-2 2.5 ng/mL) [9]	11	9.07	-33.7	-49.3	86.9
YT (IL-2 2.5 ng/mL) [8]	0.22	-0.59	-2.17	8.04	97.5
[1]	-1.56	-0.88	-2.2	6.06	99.6
[5]	-9.21	-14.7	-12.2	-0.94	86.2
[6]	-10.8	-9.27	-8.85	-5.72	90.7
[12]	-9.84	-12.7	-4.81	-1.08	98.6
[14]	-13.3	-12	9.4	-3	95.5

Conditions	drug sensitivity score
DERL-7 (IL-2 2.5 ng/mL) [26]	7.97
IMC-1 (IL-2 20 ng/mL) [20]	5.34
KAI3 (IL-2 2.5 ng/mL) [23]	5.72
KHYG-1 (IL-2 2.5 ng/mL) [28]	6.29
NK-92 (IL-2 2.5 ng/mL) [24]	4.64
NK-YS (IL-2 2.5 ng/mL) [16]	7.84
NKL (IL-2 2.5 ng/mL) [17]	5.08
SNK-6 (IL-2 2.5 ng/mL) [22]	3.3
YT (IL-2 2.5 ng/mL) [21]	6.67
[2]	6.42
[18]	4.72
[19]	4.61
[25]	5.41
[27]	5.07

CS(=O)(=O)c1ccc(-c2cnc(N)c(C(=O)Nc3ccccc3)n2)cc1 [VE-821] (max concentration tested 10000 nM)
percent inhibition of viability [%]
Conditions	1 nM	10 nM	100 nM	1000 nM	10000 nM
DERL-7 (IL-2 2.5 ng/mL) [13]	4.33	7.29	1.29	12.9	50.9
IMC-1 (IL-2 20 ng/mL) [7]	-4.03	0.79	-1.04	4.32	67.9
KAI3 (IL-2 2.5 ng/mL) [10]	-6.99	-6.14	7.79	43.5	52
KHYG-1 (IL-2 2.5 ng/mL) [15]	-3.09	-0.84	3.42	23.8	95.3
NK-92 (IL-2 2.5 ng/mL) [11]	-13.2	-3.86	2.78	36	48
NK-YS (IL-2 2.5 ng/mL) [3]	-5.61	-3.96	4.64	25.1	40.2
NKL (IL-2 2.5 ng/mL) [4]	-16.3	-14.8	-15.7	-0.56	24.9
SNK-6 (IL-2 2.5 ng/mL) [9]	3.87	-9.33	-1.01	33.3	52.1
YT (IL-2 2.5 ng/mL) [8]	-4.34	-6.49	-4.51	4.75	9.28
[1]	-5.95	-7.38	-2.06	18.1	32.8
[5]	-3.66	1.35	5.12	0.23	15.6
[6]	-7.66	8.41	7.62	7.68	15.6
[12]	-1.78	22.5	3.18	5.45	6.99
[14]	9.92	20.7	22.8	23	21.5

Conditions	drug sensitivity score
DERL-7 (IL-2 2.5 ng/mL) [26]	4.71
IMC-1 (IL-2 20 ng/mL) [20]	4.37
KAI3 (IL-2 2.5 ng/mL) [23]	8.88
KHYG-1 (IL-2 2.5 ng/mL) [28]	8.93
NK-92 (IL-2 2.5 ng/mL) [24]	7.01
NK-YS (IL-2 2.5 ng/mL) [16]	4.96
NKL (IL-2 2.5 ng/mL) [17]	0.89
SNK-6 (IL-2 2.5 ng/mL) [22]	6.77
YT (IL-2 2.5 ng/mL) [21]	0
[2]	3.68
[18]	0.29
[19]	0.62
[25]	0
[27]	0
